The record followed here is US20180305332A1, “Bispiperidinyl Derivatives as Liver X Receptor Beta Agonists, Compositions, and Their Use” (Merck Sharp & Dohme Corp., priority 2015, published 2018).

SMILES strings stand for the structures.

Assay [1] has as its target T1, GST tagged LXRalpha LBD (ligand binding domain) (Homo sapiens, UniProt Q13133).
T1 construct: purchased Invitrogen pv4655
T1 sequence (Q13133 209-447 limits assumed): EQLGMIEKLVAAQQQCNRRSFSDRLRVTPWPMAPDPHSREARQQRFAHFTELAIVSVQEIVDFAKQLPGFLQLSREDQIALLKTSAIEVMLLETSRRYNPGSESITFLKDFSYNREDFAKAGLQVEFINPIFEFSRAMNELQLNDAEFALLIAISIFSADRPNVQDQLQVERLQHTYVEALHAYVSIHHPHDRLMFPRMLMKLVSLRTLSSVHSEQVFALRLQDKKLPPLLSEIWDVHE
Put plainly: LanthaScreen TR-FRET Liver X Receptor Coactivator Assay, LXR alpha-LBD. In kind it is biochemical. The note with it: relative to reference T0901317; for EC50: Inflection Point (potency), co-activator recruitment, read-out: LXR alpha IP; for LXR alpha act @ max dose (%) / Emax: activity at max dose (efficacy); for Emax: read-out: LXR alpha act @ max dose (%). The procedure, abridged: (§1)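 LXR LBD protein mixed with test compound, then fluorescein-labelled coactivator peptide plus terbium anti-GST antibody added; after room-temperature incubation, TR-FRET read. Inflection point and Emax derived from coactivator recruitment relative to reference dual agonist T0901317.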
(In TR-FRET formats the signal depends on donor and acceptor labels being close together.)

Assay [2] addresses T2, GST tagged LXRbeta LBD (ligand binding domain) (Homo sapiens, UniProt P55055).
T2 construct: purchased Invitrogen pv4658.pps
T2 sequence (P55055 222-460 limits assumed): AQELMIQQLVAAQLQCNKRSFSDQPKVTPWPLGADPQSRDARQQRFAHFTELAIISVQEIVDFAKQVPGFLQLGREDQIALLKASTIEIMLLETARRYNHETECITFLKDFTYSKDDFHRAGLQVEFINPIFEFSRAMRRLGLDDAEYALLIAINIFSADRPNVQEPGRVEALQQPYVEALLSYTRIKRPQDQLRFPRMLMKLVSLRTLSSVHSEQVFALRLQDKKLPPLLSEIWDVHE
Description: LanthaScreen TR-FRET Liver X Receptor Coactivator Assay, LXR beta-LBD. In kind it is biochemical. The note with it: relative to reference T0901317; for EC50: Inflection Point (potency), co-activator recruitment, read-out: LXR beta IP; for LXR beta act @ max dose (%) / Emax: activity at max dose (efficacy); for Emax: read-out: LXR beta act @ max dose (%). Summed up: as §1

With `CC(C)CC(O)(C(=O)N1CCC(C2CCN(c3ccc(C(=O)N(C)C)c(Cl)c3)CC2)CC1)C(F)(F)F` (stereo not shown) [Example A-90, 2-chloro-4-{1′-[2-hydroxy-4-methyl-2-(trifluoromethyl)pentanoyl]-4,4′-bipiperidin-1-yl}-N,N-dimethylbenzamide], in assay [1], the EC50 was found to be 686 nM and the “LXR alpha act @ max dose (%)” value was found to be 45%. For the same molecule, in assay [2], the EC50 is 108 nM and the “LXR beta act @ max dose (%)” value is on record as 70%.

Consider `CCN(CC)C(=O)c1ccc(N2CCC(C3CCN(C(=O)c4c(F)cccc4F)CC3)CC2)cc1Cl` [Example E-14, 2-chloro-4-{1′-[(2,6-difluorophenyl)carbonyl]-4,4′-bipiperidin-1-yl}-N,N-diethylbenzamide], for which, in assay [1], the EC50 stood at 1890 nM and the Emax is 30%. Moreover, in assay [2], the EC50 was found to be 289 nM and the Emax was 78%.

As for `CC(C)(C)OC(=O)N1CCC(C2CCN(c3ccc(C(C)(C)O)c(Cl)c3)CC2)CC1` [Example E-69, tert-butyl 1′-[3-chloro-4-(1-hydroxy-1-methylethyl)phenyl]-4,4′-bipiperidine-1-carboxylate], in assay [1], the EC50 was determined as 996 nM and the Emax was 56%. Besides, in assay [2], the EC50 was found to be 322 nM and the Emax stood at 69%.

For `CN(C)C(=O)c1ccc(N2CCC(C3CCN(C(=O)C4(c5ccc(F)cc5)CCC4)CC3)CC2)cc1Cl` [Example A-18, 2-chloro-4-(1′-{[1-(4-fluorophenyl)cyclobutyl]carbonyl}-4,4′-bipiperidin-1-yl)-N,N-dimethylbenzamide], the EC50 in assay [1] stood at 4200 nM; in assay [2], 207 nM. The Emax in assay [1] is 15%; in assay [2], 81%.

Consider `CS(=O)(=O)c1ccc(N2CCC(C3CCN(C(=O)[C@](O)(c4ccccc4)C(F)(F)F)CC3)CC2)cc1Cl` [Example D-7, (2R)-3-{1′-[3-chloro-4-(methylsulfonyl)phenyl]-4,4′-bipiperidin-1-yl}-1,1,1-trifluoro-3-oxo-2-phenylpropan-2-ol], for which, in assay [1], the EC50 turned out to be 413 nM and the Emax came out at 20%. In assay [2], the EC50 stood at 180 nM and the Emax turned out to be 82%.

Take `CN(C)C(=O)c1ccc(N2CCC(C3CCN(C(=O)C(O)(C4CC4)C(F)(F)F)CC3)CC2)cc1Cl` (single isomer, unassigned) [Example A-8, 2-chloro-4-[1′-(2-cyclopropyl-3,3,3-trifluoro-2-hydroxypropanoyl)-4,4′-bipiperidin-1-yl]-N,N-dimethylbenzamide]: the EC50 in assay [1] stood at 1810 nM; in assay [2], 247 nM. The values for the Emax in assay [1] and in assay [2] were 60% and 95%, respectively.

For `CN(C(=O)c1ccc(N2CCC(C3CCN(C(=O)[C@](O)(c4ccccc4)C(F)(F)F)CC3)CC2)cc1Cl)C1CCOC1` (stereo partly drawn) [Example E-53, 2-chloro-N-methyl-N-(tetrahydrofuran-3-yl)-4-{1′-[(2R)-3,3,3-trifluoro-2-hydroxy-2-phenylpropanoyl]-4,4′-bipiperidin-1-yl}benzamide], the EC50 stood at 1600 nM in assay [1] and 219 nM in assay [2]. For the same molecule, the Emax in assay [1] amounted to 34%; in assay [2], 98%.

With `CN(C)C(=O)c1ccc(N2CCC(C3CCN(C(=O)C(O)(c4ccccc4)C(F)(F)C(F)(F)C(F)(F)F)CC3)CC2)cc1Cl` (stereo not shown) [Example A-55, 2-chloro-4-[1′-(3,3,4,4,5,5,5-heptafluoro-2-hydroxy-2-phenylpentanoyl)-4,4′-bipiperidin-1-yl]-N,N-dimethylbenzamide], in assay [1], the EC50 stood at 1340 nM and the “LXR alpha act @ max dose (%)” value was 25%. Further, in assay [2], the EC50 was determined as 408 nM and the “LXR beta act @ max dose (%)” value came out at 93%.

On to `CN(C)C(=O)c1ccc(N2CCC(C3CCN(C(=O)[C@](O)(c4ccccc4)C(F)(F)F)CC3)CC2)cc1Cl` [Example A-13, 2-chloro-N,N-dimethyl-4-{1′-[(2R)-3,3,3-trifluoro-2-hydroxy-2-phenylpropanoyl]-4,4′-bipiperidin-1-yl}benzamide], for which, in assay [1], the EC50 came out at 1510 nM and the Emax came out at 19%. In assay [2], the EC50 amounted to 52 nM and the Emax was determined as 106%.

Take `CN(C)C(=O)c1c(Cl)cc(N2CCC(C3CCN(C(=O)c4c(F)cccc4F)CC3)CC2)cc1Cl` [Example A-32, 2,6-dichloro-4-{1′-[(2,6-difluorophenyl)carbonyl]-4,4′-bipiperidin-1-yl}-N,N-dimethylbenzamide]: the EC50 in assay [1] turned out to be 748 nM; in assay [2] it was 101 nM. In addition, the Emax in assay [1] came out at 24%; in assay [2], 88%.

`CN(C)C(=O)c1ccc(N2CCC(C3CCN(C(=O)[C@](O)(c4ccccc4)C(F)(F)C(F)(F)F)CC3)CC2)nc1Cl` (single isomer, unassigned) [Example B-16]: in assay [1], the EC50 was found to be 1340 nM and the Emax was found to be 17%. In assay [2], the EC50 is 89 nM and the Emax was found to be 91%.

As to `CCCN(C)C(=O)c1ccc(N2CCC(C3CCN(C(=O)[C@](O)(c4ccccc4)C(F)(F)F)CC3)CC2)cc1Cl` [Example E-61, 2-chloro-N-methyl-N-propyl-4-{1′-[(2R)-3,3,3-trifluoro-2-hydroxy-2-phenylpropanoyl]-4,4′-bipiperidin-1-yl}benzamide], the values for the EC50 in assay [1] and in assay [2] were 1280 nM and 100 nM, respectively. In addition, the Emax was 29% in assay [1] and 94% in assay [2].

With `CN(C)C(=O)c1ccc(N2CCC(C3CCN(C(=O)C(O)(c4ccccc4)C(F)(F)F)CC3)CC2)nc1Cl` (stereo in doubt) [Example B-9, 2-chloro-N,N-dimethyl-6-{1′-[(2R)-3,3,3-trifluoro-2-hydroxy-2-phenylpropanoyl]-4,4′-bipiperidin-1-yl}pyridine-3-carboxamide], in assay [1], the EC50 is 1970 nM and the Emax was 31%. In assay [2], the EC50 is 48 nM and the Emax worked out at 104%.

In the case of `CN(C)C(=O)c1ccc(N2CCC(C3CCN(C(=O)C4(c5ccccc5Cl)CC4)CC3)CC2)cc1Cl` [Example A-86, 2-chloro-4-(1′-{[1-(2-chlorophenyl)cyclopropyl]carbonyl}-4,4′-bipiperidin-1-yl)-N,N-dimethylbenzamide], the EC50 in assay [1] came out at 671 nM; in assay [2], 16 nM. The Emax in assay [1] is 73%; in assay [2], 112%.

On to `CN(C)C(=O)c1ccc(N2CCC(C3CCN(C(=O)OCc4c(Cl)cccc4Cl)CC3)CC2)cc1Cl` [Example A-108, 2,6-dichlorobenzyl 1′-[3-chloro-4-(dimethylcarbamoyl)phenyl]-4,4′-bipiperidine-1-carboxylate], for which the values for the EC50 in assay [1] and in assay [2] were 522 nM and 8 nM, respectively. In addition, the Emax in assay [1] was 74%; in assay [2], 131%.

As to `CC(C)C(O)(C(=O)N1CCC(C2CCN(c3ccc(C(N)=O)c(Cl)c3)CC2)CC1)C(F)(F)F` (stereo not shown) [Example E-4, 2-chloro-4-{1′-[2-hydroxy-3-methyl-2-(trifluoromethyl)butanoyl]-4,4′-bipiperidin-1-yl}benzamide], in assay [1], the EC50 came to 180 nM and the Emax was found to be 67%. Further, in assay [2], the EC50 is 51 nM and the Emax was found to be 94%.

Take `O=C(c1ccc(N2CCC(C3CCN(C(=O)[C@](O)(c4ccccc4)C(F)(F)F)CC3)CC2)cc1Cl)N1CC(N2CCCCC2)C1` [Example E-44, (2R)-3-(1′-{3-chloro-4-[(3-piperidin-1-ylazetidin-1-yl)carbonyl]phenyl}-4,4′-bipiperidin-1-yl)-1,1,1-trifluoro-3-oxo-2-phenylpropan-2-ol]: in assay [1], the EC50 amounted to 1690 nM and the Emax came out at 31%. Also, in assay [2], the EC50 was 90 nM and the Emax is 67%.

Regarding `CN(C)C(=O)c1ccc(N2CCC(C3CCN(C(=O)C(O)(c4ccccc4)C(F)(F)C(F)(F)C(F)(F)F)CC3)CC2)cc1Cl` (stereo not shown) [Example A-54, 2-chloro-4-[1′-(3,3,4,4,5,5,5-heptafluoro-2-hydroxy-2-phenylpentanoyl)-4,4′-bipiperidin-1-yl]-N,N-dimethylbenzamide], the EC50 came out at 827 nM in assay [1] and 410 nM in assay [2]. Besides, the Emax is 15% in assay [1] and 75% in assay [2].

For the molecule `CN(CCO)C(=O)c1ccc(N2CCC(C3CCN(C(=O)[C@](O)(c4ccccc4)C(F)(F)F)CC3)CC2)cc1Cl` [Example E-58, 2-chloro-N-(2-hydroxyethyl)-N-methyl-4-{1′-[(2R)-3,3,3-trifluoro-2-hydroxy-2-phenylpropanoyl]-4,4′-bipiperidin-1-yl}benzamide], the EC50 in assay [1] is 1830 nM; in assay [2] it was 57 nM. In addition, the Emax in assay [1] was found to be 48%; in assay [2], 98%.
